Reference: patent US10947188B2, “Small molecule ferroptosis inducers” (THE TRUSTEES OF COLUMBIA UNIVERSITY IN THE CITY OF NEW YORK, priority 2016, dated 2021)

How the values were obtained:
[1] = test system: HT-1080; experiment: Modulatory profiling: Alamar Blue viability, lethal compound cotreated with death modulator (EC50, AUC); assay type: cell-based; design: AUC, modulator HT.3MA / AUC, modulator HT.ALLN / AUC HT.ATA / AUC HT.ActD / AUC HT.BHA / AUC HT.BHT / AUC HT.BocD / AUC HT.CHX / AUC HT.Co2+ / AUC HT.DPQ / AUC HT.EGTA / AUC HT.Lmim / AUC HT.NAD+ / AUC HT.Nec-1 / AUC HT.SP600125 / AUC HT.TLCK / AUC HT.U0126: unit not given beside the values; conditions: for AUC HT.ATA: HT-1080, modulator ATA; for AUC HT.ActD: HT-1080, modulator ActD; for AUC HT.BHA: HT-1080, modulator BHA; for AUC HT.BHT: HT-1080, modulator BHT; for AUC HT.BocD: HT-1080, modulator BocD; for AUC HT.CHX: HT-1080, modulator CHX; for AUC HT.Co2+: HT-1080, modulator Co2+; for AUC HT.CspA: HT-1080, modulator CspA; for AUC HT.DPQ: HT-1080, modulator DPQ; for AUC HT.EGTA: HT-1080, modulator EGTA; for AUC HT.Gd3+: HT-1080, modulator Gd3+; for AUC HT.LNAME: HT-1080, modulator LNAME; for AUC HT.Lmim: HT-1080, modulator Lmim; for AUC HT.NAD+: HT-1080, modulator NAD+; for AUC HT.NMMA: HT-1080, modulator NMMA; for HT.atoc (AUC) / HT.bCarotene (AUC) / HT.deferox (AUC) / HT.digoxin (AUC) / HT.trolox (AUC) / HT.zVAD (AUC): HT-1080; for HT.atoc (AUC): modulator atoc; for HT.bCarotene (AUC): modulator bCarotene; for HT.deferox (AUC): modulator deferox; for HT.digoxin (AUC): modulator digoxin; for HT.trolox (AUC): modulator trolox; for HT.zVAD (AUC): modulator zVAD; for AUC, modulator HT.3MA / AUC, modulator HT.ALLN: HT-1080 cells, modulatory profile value (AUC); for AUC, modulator HT.3MA: lethal compound cotreated with modulator 3MA; for AUC, modulator HT.ALLN: lethal compound cotreated with modulator ALLN
[2] = test system: BJeLR; experiment: as above; assay type: cell-based, human; design: AUC, modulator BJ.Gd3+ / AUC, modulator BJ.LNAME / AUC, modulator BJ.Lmin / AUC, modulator BJ.3MA / AUC, modulator BJ.ALLN / AUC, modulator BJ.Boc D / AUC, modulator BJ.CHX / AUC, modulator BJ.Co2+ / AUC, modulator BJ.Nec-1 / AUC, modulator BJ.Pepstatin / AUC, modulator BJ.TLCK / AUC, modulator BJ.atoc / AUC, modulator BJ.trolox / AUC, modulator BJ.zVAD: unit not given beside the values; conditions: BJeLR cells, modulatory profile value (AUC); for AUC, modulator BJ.3MA: lethal compound cotreated with modulator 3MA; for AUC, modulator BJ.ALLN: lethal compound cotreated with modulator ALLN; for AUC, modulator BJ.Boc D: lethal compound cotreated with modulator Boc D; for AUC, modulator BJ.CHX: lethal compound cotreated with modulator CHX; for AUC, modulator BJ.Co2+: lethal compound cotreated with modulator Co2+; for AUC, modulator BJ.DPQ: lethal compound cotreated with modulator DPQ; for AUC, modulator BJ.Gd3+: lethal compound cotreated with modulator Gd3+; for AUC, modulator BJ.LNAME: lethal compound cotreated with modulator LNAME; for AUC, modulator BJ.Lmin/NAD+: lethal compound cotreated with modulator Lmin/NAD+; for AUC, modulator BJ.Lmin: lethal compound cotreated with modulator Lmin; for AUC, modulator BJ.NAD+: lethal compound cotreated with modulator NAD+; for AUC, modulator BJ.NMMA: lethal compound cotreated with modulator NMMA; for AUC, modulator BJ.Nec-1: lethal compound cotreated with modulator Nec-1; for AUC, modulator BJ.Pepstatin: lethal compound cotreated with modulator Pepstatin; for AUC, modulator BJ.TLCK: lethal compound cotreated with modulator TLCK; for AUC, modulator BJ.atoc: lethal compound cotreated with modulator atoc; for AUC, modulator BJ.trolox: lethal compound cotreated with modulator trolox; for AUC, modulator BJ.zVAD: lethal compound cotreated with modulator zVAD

CCCCNc1c(Cl)cnn(-c2ccccc2)c1=O [CIL36]
AUC HT.ATA [1]: 0.05274 | AUC HT.ActD [1]: −0.04409 | AUC HT.BHA [1]: 0.0054 | AUC HT.BHT [1]: −0.1272 | AUC HT.BocD [1]: 0.002169 | AUC HT.CHX [1]: −0.06645 | AUC HT.Co2+ [1]: 0.02821 | AUC HT.CspA [1]: 0.01593 | AUC HT.DPQ [1]: 0.05193 | AUC HT.EGTA [1]: −0.01311 | AUC HT.Gd3+ [1]: −0.04267 | AUC HT.LNAME [1]: −0.02799 | AUC HT.Lmim [1]: 0.004214 | AUC HT.NAD+ [1]: −0.06378 | AUC HT.NMMA [1]: −0.009501 | HT.atoc (AUC) [1]: 0.08942 | HT.bCarotene (AUC) [1]: −0.005276 | HT.deferox (AUC) [1]: 0.06452 | HT.digoxin (AUC) [1]: −0.03557 | HT.trolox (AUC) [1]: 0.002425 | HT.zVAD (AUC) [1]: −0.003588 | AUC, modulator HT.3MA [1]: 0.08327 | AUC, modulator HT.ALLN [1]: 0.1422 | AUC, modulator BJ.3MA [2]: 0.06295 | AUC, modulator BJ.ALLN [2]: −0.03236 | AUC, modulator BJ.Boc D [2]: −0.0473 | AUC, modulator BJ.CHX [2]: −0.03087 | AUC, modulator BJ.Co2+ [2]: −0.03647 | AUC, modulator BJ.DPQ [2]: 0.1393 | AUC, modulator BJ.Gd3+ [2]: 0.01469 | AUC, modulator BJ.LNAME [2]: 0.0008728 | AUC, modulator BJ.Lmin/NAD+ [2]: −0.09403 | AUC, modulator BJ.Lmin [2]: 0.02336 | AUC, modulator BJ.NAD+ [2]: −0.01826 | AUC, modulator BJ.NMMA [2]: 0.03927 | AUC, modulator BJ.Nec-1 [2]: −0.1729 | AUC, modulator BJ.Pepstatin [2]: −0.01891 | AUC, modulator BJ.TLCK [2]: −0.04337 | AUC, modulator BJ.atoc [2]: 0.06822 | AUC, modulator BJ.trolox [2]: −0.02322 | AUC, modulator BJ.zVAD [2]: 0.00966

CCc1ccc(/C=C2/SC(=O)N(CCC(C)NCCCN3CCOCC3)C2=O)cc1 (stereo not shown) [CIL46]
AUC HT.ATA [1]: 0.0162 | AUC HT.ActD [1]: −0.02916 | AUC HT.BHA [1]: −0.1015 | AUC HT.BHT [1]: −0.1471 | AUC HT.BocD [1]: −0.04371 | AUC HT.CHX [1]: −0.01909 | AUC HT.Co2+ [1]: −0.1082 | AUC HT.CspA [1]: 0.0003356 | AUC HT.DPQ [1]: −0.001692 | AUC HT.EGTA [1]: −0.01699 | AUC HT.Gd3+ [1]: −0.008617 | AUC HT.LNAME [1]: −0.02805 | AUC HT.Lmim [1]: −0.03166 | AUC HT.NAD+ [1]: −0.06754 | AUC HT.NMMA [1]: 0.001557 | HT.atoc (AUC) [1]: 0.04736 | HT.bCarotene (AUC) [1]: −0.01026 | HT.deferox (AUC) [1]: 0.03467 | HT.digoxin (AUC) [1]: −0.04671 | HT.trolox (AUC) [1]: −0.0145 | HT.zVAD (AUC) [1]: 0.01724 | AUC, modulator HT.3MA [1]: 0.08624 | AUC, modulator HT.ALLN [1]: 0.03767 | AUC, modulator BJ.3MA [2]: 0.1884 | AUC, modulator BJ.ALLN [2]: −0.01374 | AUC, modulator BJ.Boc D [2]: −0.005903 | AUC, modulator BJ.CHX [2]: 0.1598 | AUC, modulator BJ.Co2+ [2]: −0.1389 | AUC, modulator BJ.DPQ [2]: 0.03979 | AUC, modulator BJ.Gd3+ [2]: −0.05606 | AUC, modulator BJ.LNAME [2]: −0.02185 | AUC, modulator BJ.Lmin/NAD+ [2]: 0.1825 | AUC, modulator BJ.Lmin [2]: 0.2583 | AUC, modulator BJ.NAD+ [2]: −0.02371 | AUC, modulator BJ.NMMA [2]: 0.03363 | AUC, modulator BJ.Nec-1 [2]: 0.08455 | AUC, modulator BJ.Pepstatin [2]: −0.01313 | AUC, modulator BJ.TLCK [2]: −0.09715 | AUC, modulator BJ.atoc [2]: 0.1051 | AUC, modulator BJ.trolox [2]: 0.04647 | AUC, modulator BJ.zVAD [2]: −0.05153
